{
  "source": "patent US11806555B2",
  "about": "“Methods for treating hair loss disorders” (THE TRUSTEES OF COLUMBIA UNIVERSITY IN THE CITY OF NEW YORK, priority 2010, dated 2023)",
  "key": {"[1]": {"test_system": "telogen hair follicles of normal C57BL/6 mice", "assay": "induction of anagen by topical treatment of normal mice in telogen", "format": "in vivo, mouse", "conditions": "for induction of anagen: topical, mice in telogen; for induction of anagen / proliferation in the telogen hair follicle (Ki67) / keratinocyte matrix cells: vs vehicle", "experimental": "7-8 weeks old animals in telogen were treated with controls or JAK STAT inhibitors.\nRight half of each mouse was administered topical drug, left half of each mouse was treated with DMSO alone.\nTo test whether inhibition of JAK-STAT signaling could therefore trigger the telogen-to-anagen transition, a topical JAK3 inhibitor was applied to test whether anagen could be induced in normal mouse skin in telogen."}, "human embryonic scalp": {"test_system": "human embryonic scalp", "assay": "drug treatment of human fetal scalp in vitro, hair follicle morphogenesis", "format": "cell-based", "parameters": "dose or concentration left out as unconfirmed", "conditions": "human embryonic scalp at 20 weeks, vs DMSO", "from_the_text": "Skin was harvested and sectioned and assessed for hair follicle morphology."}, "[2]": {"test_system": "IL-15 triggered pSTAT3 activation", "assay": "IL-15-induced Stat3 activation in T cells", "format": "cell-based", "conditions": "T cells / CTL effectors"}, "dermal sheath cells": {"test_system": "dermal sheath cells", "assay": "IL-15-induced LAK cell cytotoxicity against dermal sheath cells", "format": "cell-based, mouse", "experimental": "In vitro cytotoxicity assays. Determination of specific killing of target cells was performed using CFSE-labeled DS cells at targets mixed with different ratios of effector cells incubated for 5 hours at 37° C. 5% CO2 with or without neutralizing rat anti-mouse NKG2D antibody (20 ug/ml) (Biolegend, CX5). Specific lysis of DS cells was determined flow cytometrically by measuring cell death of CFSE+DS cells using Annexin V/7-AAD."}, "[3]": {"conditions": "C3H/HeJ, mouse, in vivo, 10 mg/kg/day"}, "[4]": {"test_system": "alopecia areata in grafted C3H/HeJ mice", "conditions": "for CD8+NKG2D+ T cells in skin and cutaneous lymph nodes: flow cytometry; for ALADIN score / transcriptional signature / GEDI (CTL and IFN signatures): skin; for development / onset of alopecia areata: systemic treatment from time of grafting", "from_the_text": "Alopecia areata is graded based on severity, location of inflammatory cells, types and relative numbers of inflammatory cells (granulocytes, mast cells, lymphocytes), follicular dystrophy, etc.\nProtocol #1: In the prevention setting, recipient mice will be treated beginning the first week after grafting.\nTransfer of Alopecia Areata using grafted C3H/HeJ skin. Normal-haired C3H/HeJ mice were grafted at 8 weeks of age (during the second telogen) with skin from a C3H/HeJ mouse that developed AA spontaneously, as described previously^7. In brief, mice spontaneously affected with AA were euthanized, full thickness skin grafts of approximately 2 cm in diameter were removed and grafted to normal-haired C3H/HeJ mice.\nFlow cytometric analysis of skin and cutaneous lymph nodes. To make a single cell suspension of mouse skin, fat was removed from the overlying skin in cold PBS and then incubated in collagenase type I (2 mg/ml in PBS) at 32° C. for 75 minutes. After digestion the skin was minced in RPMI/10% fetal bovine serum, filtered through a 70 mM cell strainer, and centrifuged at 1100 g for 5 minutes. The pellet was resuspended in RPMI/10% fetal bovine serum, filtered through a 40 mM cell strainer and spun at 400 g for 5 mins. The pellet was resuspended in FACs buffer (PBS/5% BSA), DAPI to gate on live cells and staining antibodies (listed in Supplemental Data). Cutaneous lymph nodes were pooled minced in RPMI, filtered through a 40 mM cell strainer, centrifuged at 400 g for 5 minutes stained and analysed on a BD LSR II flow cytometer.\nPrevention and Treatment Studies. For prevention studies, mice were treatment beginning the day of grafting (n=5-10 mice per group).\n(§1) ALADIN scores. The IFN and CTL signatures were used to develop a bivariate score statistic. Individual signature IFN and CTL scores were determined following procedures used in human SLE^,S9,S10. The sets of genes selected to comprise our IFN and CTL signatures were CD8A, GZMB, and ICOS for the CTL signature, and CXCL9, CXCL10, CXCL11, STAT1, and MX1 for the IFN signature. The scores for the prevention mice were calculated in relation to the sham mice; whereas, the scores for the topical treatment experiments were calculated relative to all the samples at week zero."}, "[5]": {"test_system": "C3H/HeJ mice with long-standing alopecia areata", "conditions": "for hair regrowth / reversal of alopecia areata: systemic (pump), established AA; for CD8+NKG2D+ T cells in skin and cutaneous lymph nodes: flow cytometry", "method": "(§2) To make a single cell suspension of mouse skin, fat was removed from the overlying skin in cold PBS and then incubated in collagenase type I (2 mg/ml in PBS) at 32° C. for 75 minutes. After digestion the skin was minced in RPMI/10% fetal bovine serum, filtered through a 70 mM cell strainer, and centrifuged at 1100 g for 5 minutes. The pellet was resuspended in RPMI/10% fetal bovine serum, filtered through a 40 mM cell strainer and spun at 400 g for 5 mins. The pellet was resuspended in FACs buffer (PBS/5% BSA), DAPI to gate on live cells and staining antibodies (listed in Supplemental Data). Cutaneous lymph nodes were pooled minced in RPMI, filtered through a 40 mM cell strainer, centrifuged at 400 g for 5 minutes stained and analysed on a BD LSR II flow cytometer."}, "[6]": {"test_system": "C3H/HeJ mice with long-standing AA", "conditions": "for CD8+NKG2D+ T cells in treated skin: flow cytometry", "method": "as §2, §1"}, "IL-15 signaling": {"test_system": "IL-15 signaling", "conditions": "human whole blood assays; cited from earlier work"}, "[7]": {"conditions": "rodent; cited from earlier work"}, "[8]": {"conditions": "all dose groups; cited from earlier work"}, "[9]": {"test_system": "Th1 and Th17 transcript markers and keratin 16", "conditions": "cited from earlier work"}, "[10]": {"test_system": "epidermal thickening and dermal inflammation", "conditions": "in vivo; cited from earlier work"}, "[11]": {"conditions": "Active (n = 149); cited from earlier work"}, "[12]": {"conditions": "topical vs systemic administration"}},
  "note": "Entries after “also recorded” stand apart in the source; their conditions may differ. Where two headings read alike, the source gives them in different places.",
  "data": [
    {"compound": "CC1CCN(C(=O)CC#N)CC1N(C)c1ncnc2[nH]ccc12", "note": "(stereo not drawn) [tofacitinib]", "values": [
      {"measurement": "durability of effect", "setting": "[1]; 1% daily for 3 weeks", "result": "more than 1 month"},
      {"measurement": "number of hair follicles vs vehicle treated", "setting": "[1]; mouse, in vivo", "result": "greater"},
      {"measurement": "thickness of hair follicles vs vehicle treated", "setting": "[1]; mouse, in vivo", "result": "greater"},
      {"measurement": "induction of anagen", "setting": "[1]", "result": "marked induction of anagen"},
      {"measurement": "proliferation in the telogen hair follicle (Ki67) / keratinocyte matrix cells", "setting": "[1]", "result": "marked proliferation"},
      {"measurement": "hair follicle morphology, stage of first anagen of morphogenesis", "setting": "human embryonic scalp", "result": "more advanced"},
      {"measurement": "IL-15-induced Stat3 (pSTAT3) activation", "setting": "[2]", "result": "block; also recorded: inhibits"},
      {"measurement": "IL-15-induced LAK cell cytotoxic function (dermal sheath cell cytotoxicity)", "setting": "dermal sheath cells", "result": "inhibit"},
      {"measurement": "serum levels", "setting": "[3]", "result": "30 to 40", "unit": "nM"},
      {"measurement": "development of cutaneous lymphadenopathy", "setting": "[4]; 10 mg/kg/day Alzet pump, 5 mice", "result": "None"},
      {"measurement": "CD8+NKG2D+ T cells in skin and cutaneous lymph nodes", "setting": "[4]", "result": "eliminated; also recorded: prevented"},
      {"measurement": "IFN-response chemokines and markers of CD8 cytotoxic effectors in skin", "setting": "[4]; microarray, 13 weeks of treatment vs PBS", "result": "elimination"},
      {"measurement": "HF NKG2DL expression (e.g. H60 by immunostain)", "setting": "[4]; mouse, in vivo", "result": "reduced although not completely eliminated"},
      {"measurement": "durability of disease prevention after treatment withdrawal", "setting": "[4]; mouse, in vivo", "result": 12, "unit": "weeks"},
      {"measurement": "histological signs of inflammation in skin", "setting": "[4]; mouse, in vivo", "result": "no histological signs of inflammation"},
      {"measurement": "inflammatory biomarkers in the skin, including MHC molecules and IFN signature", "setting": "[4]; mouse, in vivo", "result": "down-regulated"},
      {"measurement": "inflammatory infiltrate", "setting": "[4]; photomicrographs, FIG. 53", "result": "normalizes"},
      {"measurement": "ALADIN score / transcriptional signature", "setting": "[4]", "result": "prevented the emergence"},
      {"measurement": "GEDI (CTL and IFN signatures)", "setting": "[4]", "result": "prevented the emergence"},
      {"measurement": "development / onset of alopecia areata", "setting": "[4]", "result": "prevents and None and prevented and inhibited"},
      {"measurement": "development / onset of alopecia areata", "setting": "[4]; listed as CP690550", "result": "prevention of AA"},
      {"measurement": "hair regrowth / reversal of alopecia areata", "setting": "[5]", "result": "complete"},
      {"measurement": "disease recurrence after treatment withdrawal", "setting": "[6]; additional 8 weeks after withdrawal", "result": "no evidence of disease recurrence"},
      {"measurement": "untreated areas on the abdomen", "setting": "[6]; drug applied to back skin only", "result": "remained alopecic"},
      {"measurement": "CD8+NKG2D+ T cells in treated skin", "setting": "[6]", "result": "disappearance"},
      {"measurement": "ALADIN transcriptional signature", "setting": "[6]; mouse, in vivo", "result": "normalization"},
      {"measurement": "durability of effects after cessation of treatment", "setting": "[6]; mouse, in vivo", "result": "2-3 months"},
      {"measurement": "histological markers of disease", "setting": "[6]; mouse, in vivo", "result": "reversal"},
      {"measurement": "time to full coat of hair", "setting": "[6]; topical 0.5% daily", "result": "≤ 7", "unit": "weeks"},
      {"measurement": "time to complete hair regrowth", "setting": "[6]; topical therapy", "result": "≤ 12", "unit": "weeks"},
      {"measurement": "reversal of established / long-standing AA", "setting": "[6]; topical, daily, 0.5%", "result": "highly effective; also recorded: reversal"},
      {"measurement": "IL-15 signaling", "setting": "IL-15 signaling", "result": "inhibit"}
    ]},
    {"compound": "N#CCC(C1CCCC1)n1cc(-c2ncnc3[nH]ccc23)cn1", "note": "(stereo not drawn) [INCB018424]", "values": [
      {"measurement": "half-life (t1/2)", "setting": "[7]", "result": "3 to 6", "unit": "h"},
      {"measurement": "Total Lesion Score, decrease over vehicle", "setting": "[8]", "result": "≥ 2", "unit": "×"},
      {"measurement": "clinical responses", "setting": "[9]; psoriasis subjects, topical", "result": "rapid clinical responses"},
      {"measurement": "cutaneous Th1/Th17 cytokine responses", "setting": "[9]; psoriasis subjects, topical", "result": "normalization"},
      {"measurement": "Th1 and Th17 transcript markers and keratin 16", "setting": "[9]; topical treatment", "result": "decreased"},
      {"measurement": "epidermal thickening and dermal inflammation", "setting": "[10]", "result": "markedly reduces"},
      {"measurement": "pathological skin thinning", "setting": "[10]", "result": "No pathological skin thinning is observed"},
      {"measurement": "Adverse event: Abdominal pain, number", "setting": "[11]", "result": 3},
      {"measurement": "Adverse event: Abdominal pain, value in brackets", "setting": "[11]", "result": "(2.0)"},
      {"measurement": "Adverse event: Application site irritation, pruritus, number", "setting": "[11]", "result": 14},
      {"measurement": "Adverse event: Application site irritation, pruritus, value in brackets", "setting": "[11]", "result": "(9.3)"},
      {"measurement": "Adverse event: Back Pain, value in brackets", "setting": "[11]", "result": "(3.4)"},
      {"measurement": "Adverse event: Headache, number", "setting": "[11]", "result": 4},
      {"measurement": "Adverse event: Headache, value in brackets", "setting": "[11]", "result": "(2.7)"},
      {"measurement": "Adverse event: Influenza, number", "setting": "[11]", "result": 4},
      {"measurement": "Adverse event: Influenza, value in brackets", "setting": "[11]", "result": "(2.7)"},
      {"measurement": "Adverse event: Nasopharyngitis, number", "setting": "[11]", "result": 10},
      {"measurement": "Adverse event: Nasopharyngitis, value in brackets", "setting": "[11]", "result": "(6.7)"},
      {"measurement": "Adverse event: Sinusitis, number", "setting": "[11]", "result": 6},
      {"measurement": "Adverse event: Sinusitis, value in brackets", "setting": "[11]", "result": "(4.0)"},
      {"measurement": "Adverse event: Upper respiratory tract infection, number", "setting": "[11]", "result": 10},
      {"measurement": "Adverse event: Upper respiratory tract infection, value in brackets", "setting": "[11]", "result": "(6.7)"}
    ]},
    {"compound": "CNC1CCC(N(Cc2cccc(-c3ccncc3)c2)C(=O)c2sc3ccccc3c2Cl)CC1", "note": "(stereo not drawn) [SAG]", "values": [
      {"measurement": "time to induction of anagen", "setting": "[1]; post treatment", "result": "4 to 7", "unit": "days"},
      {"measurement": "proliferation in the telogen hair follicle (Ki67) / keratinocyte matrix cells", "setting": "[1]", "result": "marked proliferation"}
    ]},
    {"compound": "tofacitinib", "values": [
      {"measurement": "effect on anagen induction compared with SAG", "setting": "[1]; mouse, in vivo", "result": "comparable"},
      {"measurement": "time to induction and growth of robust pigmented anagen hairs", "setting": "[1]; mouse, in vivo", "result": "1-2 weeks"},
      {"measurement": "induction of anagen", "setting": "[1]", "result": "striking anagen induction"},
      {"measurement": "CD8+NKG2D+ T cells in skin and cutaneous lymph nodes", "setting": "[4]; listed as JAK3 PTKi", "result": "eliminating expansion"},
      {"measurement": "CD8+NKG2D+ T cells in skin and cutaneous lymph nodes", "setting": "[4]; listed as JAK3i", "result": "significantly decreased"},
      {"measurement": "CD8+NKG2D+ T cells in skin and cutaneous lymph nodes", "setting": "[4]; listed as JAK3 inhibitor", "result": "completely eliminated"},
      {"measurement": "expression of CD4, CD8, MHC class I and II in skin", "setting": "[4]; immunohistochemical staining", "result": "significantly decreased"},
      {"measurement": "inflammatory biomarkers in the skin, including MHC molecules and IFN signature", "setting": "[4]; mouse, in vivo", "result": "ablating"},
      {"measurement": "inflammatory profiles (skin microarray, T cell infiltrate stains, serum markers)", "setting": "[4]; osmotic pump", "result": "decreased inflammatory profiles"},
      {"measurement": "mice that developed alopecia", "setting": "[4]; osmotic pump, by six weeks following transplantation, PBS 4/4, vehicle pump 2/2", "result": "0/5"},
      {"measurement": "ALADIN score / transcriptional signature", "setting": "[4]", "result": "normalization"},
      {"measurement": "GEDI (CTL and IFN signatures)", "setting": "[4]", "result": "reduction"},
      {"measurement": "development / onset of alopecia areata", "setting": "[4]; listed as JAK3 PTKi", "result": "effectively prevented"},
      {"measurement": "development / onset of alopecia areata", "setting": "[4]; listed as JAK3 inhibitor", "result": "do not develop alopecia"},
      {"measurement": "CD8+NKG2D+ T cells in skin and cutaneous lymph nodes", "setting": "[5]; listed as JAK3i", "result": "eliminated"},
      {"measurement": "CD8+NKG2D+ T cells in skin and cutaneous lymph nodes", "setting": "[5]; listed as JAK3 inhibitor", "result": "elimination; also recorded: devoid"},
      {"measurement": "persistence of effect after cessation of treatment", "setting": "[5]; mouse, in vivo", "result": "2-3 months"},
      {"measurement": "hair regrowth / reversal of alopecia areata", "setting": "[5]; listed as JAK3i", "result": "induced hair regrowth all over the body"},
      {"measurement": "hair regrowth / reversal of alopecia areata", "setting": "[5]; listed as JAK3 inhibitor", "result": "exhibit hair regrowth"},
      {"measurement": "CD8+NKG2D+ T cells in treated skin", "setting": "[6]", "result": "significantly decreased"},
      {"measurement": "pigmentation of regrown hair coat", "setting": "[6]; [12]", "result": "darkly pigmented"},
      {"measurement": "speed of hair regrowth", "setting": "[6]; [12]", "result": "very rapid"}
    ]}
  ]
}
